System: human MAIT cells from peripheral blood
Experiment: Activation of primary MAIT cells from PBMCs (CD69, IFN-γ, TNF-α)
Format: cell-based
Conditions: PBMCs with C1R cells expressing MR1
Experimental: PBMCs from a healthy donor were mixed with C1R-huMR1 cells (10^5 each/well). Salmonella SL1344 supernatant (2 μl) from cultures grown in LB supplemented with 25 μg/ml streptomycin (Sigma) for 4 hr at 37° C., or compounds (35A, 36A, 48G: 25 μg/ml final, A-6FP: 10 μM final) or PMA (2 ng/ml+ionomycin (1 ng/ml) added in a total volume of 220 μl RF-10, and incubated overnight at 37° C. Cells were stained with anti-CD3-PE-Cy7 (eBioscience, 20 μg/ml), anti-CD4-APC-Cy7 (Biolegend, 1.7 μg/ml), anti-CD161-APC (Miltenyi Biotec, 1:50), FITC-conjugated D5 (anti-MAIT TCR, 10 μg/ml) and either anti-CD69-PE (BD Biosciences 1:50), anti-IFNγ-PE (BD Pharmingen 10 μg/ml) or anti-TNFα-PE (BD Pharmingen 10 μg/ml), and analyzed by flow cytometry using a Canto II cytometer and Diva software. For intracellular cytokine staining, brefeldin A (10 μg/ml) was added to the assay after the first 1 hr and the incubation allowed to proceed overnight. Cells were fixed with 1% parformaldehyde after staining for surface markers and permeabilised with 1% saponin during cytokine stains. MAIT cells were defined as CD3^+, CD4^−, CD161^+, D5^+ after gating on PBMCs using FSC and SSC.
PBMCs from a healthy donor were mixed with C1R cells expressing MR1 (10^5 each/well). Salmonella SL1344 supernatant (2 μl) from cultures grown in LB supplemented with 25 μg/ml streptomycin (Sigma) for 4 hr at 37° C., or compounds (RL-6,7-diMe, RL-6-Me-7-OH, 6FP: 76.2 μM final, rRL-6-HM: 0.152 μM final) or PMA (2 ng/ml+ionomycin (1 ng/ml) added in a total volume of 220 μl RF-10, and incubated overnight at 37° C. Cells were stained with anti-CD3-PE-Cy7 (eBioscience, 20 μg/ml), anti-CD4-APC-Cy7 (Biolegend, 1.7 μg/ml), anti-CD161-APC (Miltenyi Biotec, 1:50), FITC-conjugated D5 (anti-MAIT TCR, 10 μg/ml) and either anti-CD69-PE (BD Biosciences 1:50), anti-IFNγ-PE (BD Pharmingen 10 μg/ml) or anti-TNFα-PE (BD Pharmingen 10 μg/ml), and analyzed by flow cytometry using a Canto II cytometer and Diva software. […] CD69 expression was analysed by flow cytometry. […]

Cc1nc2c(=O)[nH]c(=O)nc-2n(C[C@H](O)[C@H](O)[C@H](O)CO)c1C [Compound 1, 6,7-dimethyl-8-D-ribityllumazine]
Activation of MAIT cells (CD69 upregulation, intracellular IFN-γ and TNF-α): specifically activated
